The source of these data is US20230257372A1 (CHONG KUN DANG PHARMACEUTICAL CORP., priority 2020, published 2023).

Like-named read-outs stand apart in the source and are kept apart here. Bounds are passed on as bounds.

One assay addresses T1, human recombinant HDAC1 (Homo sapiens, UniProt Q13547).
T1 construct: purchased Enzo Life Science, Inc. BML-SE456
In words: HDAC1 enzyme activity inhibition (HDAC Fluorimetric Drug Discovery Kit). It is filed as biochemical. To be noted: read-out: HDAC1. In short, it runs like this: (§1)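 Five-fold compound dilutions incubated with […] recombinant enzyme and 10 μM fluorogenic Fluor de Lys substrate, 60 min at 30° C. Fluor de Lys Developer II then added for 30 min to generate the fluorescent read-out.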

Another assay concerns the target T2, human recombinant HDAC6 (Homo sapiens, UniProt Q9UBN7).
T2 construct: purchased Calbiochem Inc. 382180
T2 sequence (Q9UBN7 1-1215): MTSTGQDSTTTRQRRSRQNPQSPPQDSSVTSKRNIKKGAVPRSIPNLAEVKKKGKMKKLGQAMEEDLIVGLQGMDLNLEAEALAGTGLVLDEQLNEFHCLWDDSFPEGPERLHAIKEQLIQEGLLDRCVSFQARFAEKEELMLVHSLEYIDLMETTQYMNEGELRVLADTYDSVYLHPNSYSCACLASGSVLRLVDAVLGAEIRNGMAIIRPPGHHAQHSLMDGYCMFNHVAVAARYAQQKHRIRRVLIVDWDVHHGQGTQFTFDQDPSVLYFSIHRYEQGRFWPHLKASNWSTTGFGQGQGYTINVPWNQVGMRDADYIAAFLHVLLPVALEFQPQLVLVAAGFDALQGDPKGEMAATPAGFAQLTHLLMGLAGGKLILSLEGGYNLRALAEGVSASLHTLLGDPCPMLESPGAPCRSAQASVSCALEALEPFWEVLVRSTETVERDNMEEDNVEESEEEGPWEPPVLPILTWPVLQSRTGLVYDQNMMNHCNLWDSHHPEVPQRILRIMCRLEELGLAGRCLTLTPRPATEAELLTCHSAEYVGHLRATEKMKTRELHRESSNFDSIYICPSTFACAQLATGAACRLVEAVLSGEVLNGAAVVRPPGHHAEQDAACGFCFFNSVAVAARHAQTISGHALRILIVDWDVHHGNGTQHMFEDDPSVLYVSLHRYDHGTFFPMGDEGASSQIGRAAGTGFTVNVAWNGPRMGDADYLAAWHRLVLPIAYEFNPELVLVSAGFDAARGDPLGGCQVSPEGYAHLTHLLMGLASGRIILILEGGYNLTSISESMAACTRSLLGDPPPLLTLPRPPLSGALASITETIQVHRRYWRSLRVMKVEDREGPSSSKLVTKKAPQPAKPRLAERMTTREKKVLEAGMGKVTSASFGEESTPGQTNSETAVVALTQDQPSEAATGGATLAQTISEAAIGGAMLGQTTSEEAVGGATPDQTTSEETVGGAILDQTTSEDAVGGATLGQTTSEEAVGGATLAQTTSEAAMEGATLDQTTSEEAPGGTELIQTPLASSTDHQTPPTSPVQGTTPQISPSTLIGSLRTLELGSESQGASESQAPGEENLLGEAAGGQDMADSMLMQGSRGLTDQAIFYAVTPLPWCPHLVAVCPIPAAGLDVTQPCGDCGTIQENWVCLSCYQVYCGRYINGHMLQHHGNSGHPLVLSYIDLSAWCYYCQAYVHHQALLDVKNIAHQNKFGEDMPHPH
The assay can be described thus: HDAC6 enzyme activity inhibition (HDAC Fluorimetric Drug Discovery Kit). The assay is classed as biochemical. A digest of the protocol:
as §1

[1] abbreviates: human recombinant HDAC1, IC50 calculated with GraphPad Prism.
Setting [2] is: human recombinant HDAC6, IC50 calculated with GraphPad Prism.
Where [3] appears, read: human recombinant HDAC1, Fluor de Lys substrate, 30° C. 60 minutes.
The mark [4] stands for this setting: human recombinant HDAC6, same protocol as HDAC1.

T1 sequence (Q13547 whole entry): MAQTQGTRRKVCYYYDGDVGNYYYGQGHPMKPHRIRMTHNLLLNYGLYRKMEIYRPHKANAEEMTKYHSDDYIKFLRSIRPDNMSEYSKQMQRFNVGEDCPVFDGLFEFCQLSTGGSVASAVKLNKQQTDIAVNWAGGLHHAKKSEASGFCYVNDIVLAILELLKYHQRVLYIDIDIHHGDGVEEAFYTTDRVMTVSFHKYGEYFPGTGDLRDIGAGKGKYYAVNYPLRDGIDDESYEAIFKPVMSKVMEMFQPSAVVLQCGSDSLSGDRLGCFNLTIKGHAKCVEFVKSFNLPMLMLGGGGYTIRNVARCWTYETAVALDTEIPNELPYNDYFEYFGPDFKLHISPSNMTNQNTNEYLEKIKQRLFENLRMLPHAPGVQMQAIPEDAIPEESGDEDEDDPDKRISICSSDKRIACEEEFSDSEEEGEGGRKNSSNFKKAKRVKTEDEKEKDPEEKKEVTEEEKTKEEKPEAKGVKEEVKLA

As to `CCN1CCc2ccc(-c3cn(Cc4ccc(-c5nnc(C(F)F)o5)cc4F)nn3)cc2C1` [Compound 4364, 2-(difluoromethyl)-5-(4-((4-(2-ethyl-1,2,3,4-tetrahydroisoquinolin-7-yl)-1H-1,2,3-triazol-1-yl)methyl)-3-fluorophenyl)-1,3,4-oxadiazole], the values for the IC50 at human recombinant HDAC1 (setting [1]) and on human recombinant HDAC6 (setting [2]) were greater than 50000 nM and 43.1 nM, respectively. Also, the “HDAC6 selectivity (fold)” value on human recombinant HDAC6 (HDAC1 IC50 / HDAC6 IC50) amounted to 1160 fold.
Regarding `CN(C)Cc1ccc(-c2cn(Cc3ncc(-c4nnc(C(F)F)o4)cc3F)nn2)cc1Cl` [Compound 19094, 1-(2-chloro-4-(1-((5-(5-(difluoromethyl)-1,3,4-oxadiazol-2-yl)-3-fluoropyridin-2-yl)methyl)-1H-1,2,3-triazol-4-yl)phenyl)-N,N-dimethylmethanamine], the figures for the IC50 on human recombinant HDAC1 (setting [3]) and on human recombinant HDAC6 (setting [4]) were greater than 50000 nM and 98 nM, respectively. Also, the “HDAC6 selectivity (fold)” value on human recombinant HDAC6 (HDAC6 over HDAC1) was 510 fold.
On the same counts, the results for `Fc1cc(-c2nnc(C(F)F)o2)ccc1Cn1cc(-c2ccc(CN3CCC3)c(Cl)c2)nn1` [Compound 18712] are greater than 50000 nM, 43.6 nM and 1146 fold.
Taken in the same sequence, the figures for `CCN1CC(c2cccc(-c3cn(Cc4ccc(-c5nnc(C(F)F)o5)cc4F)nn3)c2)C1` [Compound 4506, 2-(difluoromethyl)-5-(4-((4-(3-(1-ethylazetidin-3-yl)phenyl)-1H-1,2,3-triazol-1-yl)methyl)-3-fluorophenyl)-1,3,4-oxadiazole] were greater than 50000 nM, 22.1 nM and 2262 fold.
Consider `CC(C)N1CCc2cc(-c3cn(Cc4ccc(-c5nnc(C(F)F)o5)cc4F)nn3)ccc2C1` [Compound 4360, 2-(difluoromethyl)-5-(3-fluoro-4-((4-(2-isopropyl-1,2,3,4-tetrahydroisoquinolin-6-yl)-1H-1,2,3-triazol-1-yl)methyl)phenyl)-1,3,4-oxadiazole], for which the IC50 on human recombinant HDAC1 (setting [1]) is greater than 50000 nM; at human recombinant HDAC6 (setting [2]), 56.7 nM. The “HDAC6 selectivity (fold)” value at human recombinant HDAC6 (HDAC1 IC50 / HDAC6 IC50) turned out to be 881 fold.
For `Fc1ccc(-c2cn(Cc3ccc(-c4nnc(C(F)F)o4)cc3)nn2)cc1N1C[C@@H]2C[C@H]1CN2` [Compound 4398, 2-(4-((4-(3-((1S,4S)-2,5-diazabicyclo[2.2.1]heptan-2-yl)-4-fluorophenyl)-1H-1,2,3-triazol-1-yl)methyl)phenyl)-5-(difluoromethyl)-1,3,4-oxadiazole], the IC50 on human recombinant HDAC1 (setting [1]) is greater than 50000 nM; on human recombinant HDAC6 (setting [2]) it was 50.6 nM. In addition, the “HDAC6 selectivity (fold)” value on human recombinant HDAC6 (HDAC1 IC50 / HDAC6 IC50) is recorded as 988 fold.
Consider `FC(F)c1nnc(-c2ccc(Cn3cc(-c4cccc(NC5COC5)c4)nn3)cc2)o1` [Compound 4326, N-(3-(1-(4-(5-(difluoromethyl)-1,3,4-oxadiazol-2-yl)benzyl)-1H-1,2,3-triazol-4-yl)phenyl)oxetan-3-amine], for which the IC50 at human recombinant HDAC1 (setting [1]) is greater than 50000 nM; at human recombinant HDAC6 (setting [2]), 56.2 nM. Besides, at human recombinant HDAC6 (HDAC1 IC50 / HDAC6 IC50), the “HDAC6 selectivity (fold)” value stood at 889 fold.
Consider `FC(F)c1nnc(-c2ccc(Cn3cc(-c4cccc5c4CN(C4COC4)C5)nn3)cc2)o1` [Compound 4533, 2-(difluoromethyl)-5-(4-((4-(2-(oxetan-3-yl)isoindolin-4-yl)-1H-1,2,3-triazol-1-yl)methyl)phenyl)-1,3,4-oxadiazole], for which the IC50 on human recombinant HDAC1 (setting [3]) was greater than 50000 nM; at human recombinant HDAC6 (setting [4]), 157 nM. Further, the “HDAC6 selectivity (fold)” value on human recombinant HDAC6 (HDAC6 over HDAC1) was found to be 318 fold.
On the same counts, the results for `Fc1cc(-c2cn(Cc3ncc(-c4nnc(C(F)F)o4)cc3F)nn2)ccc1CN1CCCCC1` [Compound 18950, 2-(difluoromethyl)-5-(5-fluoro-6-((4-(3-fluoro-4-(piperidin-1-ylmethyl)phenyl)-1H-1,2,3-triazol-1-yl)methyl)pyridin-3-yl)-1,3,4-oxadiazole] are greater than 50000 nM, 87.6 nM and 570 fold.
Taken in the same sequence, the figures for `Fc1cc(-c2nnc(C(F)F)o2)ccc1Cn1cc(-c2ccc(CN3CCC3)s2)nn1` [Compound 17912, 2-(4-((4-(5-(azetidin-1-ylmethyl)thiophen-2-yl)-1H-1,2,3-triazol-1-yl)methyl)-3-fluorophenyl)-5-(difluoromethyl)-1,3,4-oxadiazole] were greater than 50000 nM, 40.4 nM and 1237 fold.
Consider `CCN1CCN(c2cccc(-c3cn(Cc4ccc(-c5nnc(C(F)F)o5)cc4F)nn3)n2)CC1` [Compound 17362, 2-(difluoromethyl)-5-(4-((4-(6-(4-ethylpiperazin-1-yl)pyridin-2-yl)-1H-1,2,3-triazol-1-yl)methyl)-3-fluorophenyl)-1,3,4-oxadiazole], for which the IC50 is greater than 50000 nM on human recombinant HDAC1 (setting [3]) and 24.6 nM on human recombinant HDAC6 (setting [4]). For the same compound, the “HDAC6 selectivity (fold)” value at human recombinant HDAC6 (HDAC6 over HDAC1) worked out at 2032 fold.
On the same counts, the results for `FC1CN(Cc2ccc(-c3cn(Cc4ccc(-c5nnc(C(F)F)o5)cc4)nn3)cc2)C1` [Compound 4549, 2-(difluoromethyl)-5-(4-((4-(4-((3-fluoroazetidin-1-yl)methyl)phenyl)-1H-1,2,3-triazol-1-yl)methyl)phenyl)-1,3,4-oxadiazole] are greater than 50000 nM, 41.2 nM and 1213 fold.
As for `Fc1cc(-c2nnc(C(F)F)o2)ccc1Cn1cc(-c2ccc(CN3CCC(F)(F)CC3)cc2)nn1` [Compound 4472, 2-(difluoromethyl)-5-(4-((4-(4-((4,4-difluoropiperidin-1-yl)methyl)phenyl)-1H-1,2,3-triazol-1-yl)methyl)-3-fluorophenyl)-1,3,4-oxadiazole], the IC50 on human recombinant HDAC1 (setting [1]) was greater than 50000 nM; on human recombinant HDAC6 (setting [2]), 123 nM. For the same compound, the “HDAC6 selectivity (fold)” value at human recombinant HDAC6 (HDAC1 IC50 / HDAC6 IC50) is on record as 407 fold.
As to `CN1CC(NCc2ccc(-c3cn(Cc4ccc(-c5nnc(C(F)F)o5)cc4)nn3)cc2)C1` [Compound 4557, N-(4-(1-(4-(5-(difluoromethyl)-1,3,4-oxadiazol-2-yl)benzyl)-1H-1,2,3-triazol-4-yl)benzyl)-1-methylazetidin-3-amine], the values for the IC50 on human recombinant HDAC1 (setting [3]) and on human recombinant HDAC6 (setting [4]) were greater than 50000 nM and 62.4 nM, respectively. Further, the “HDAC6 selectivity (fold)” value on human recombinant HDAC6 (HDAC6 over HDAC1) amounted to 801 fold.
As for `CC(C)(F)C(=O)N1CCC(c2cn(Cc3ccc(-c4nnc(C(F)F)o4)cn3)nn2)CC1` [Compound 3894], the IC50 at human recombinant HDAC1 (setting [1]) was greater than 50000 nM; at human recombinant HDAC6 (setting [2]), 100 nM. Also, on human recombinant HDAC6 (HDAC1 IC50 / HDAC6 IC50), the “HDAC6 selectivity (fold)” value turned out to be 498 fold.
Taken in the same sequence, the figures for `CN1CCN(c2ccccc2-c2cn(Cc3ccc(-c4nnc(C(F)F)o4)cn3)nn2)CC1` [Compound 4106, 2-(difluoromethyl)-5-(6-((4-(2-(4-methylpiperazin-1-yl)phenyl)-1H-1,2,3-triazol-1-yl)methyl)pyridin-3-yl)-1,3,4-oxadiazole] were greater than 50000 nM, 57 nM and 877 fold.
In the case of `CN1CCN(c2cccc(-c3cn(Cc4ccc(-c5nnc(C(F)F)o5)cn4)nn3)c2F)CC1` [Compound 4569, 2-(difluoromethyl)-5-(6-((4-(2-fluoro-3-(4-methylpiperazin-1-yl)phenyl)-1H-1,2,3-triazol-1-yl)methyl)pyridin-3-yl)-1,3,4-oxadiazole], the IC50 at human recombinant HDAC1 (setting [3]) is greater than 50000 nM; at human recombinant HDAC6 (setting [4]) it was 13.7 nM. Also, at human recombinant HDAC6 (HDAC6 over HDAC1), the “HDAC6 selectivity (fold)” value came out at 3649 fold.
As to `Fc1cc(-c2nnc(C(F)F)o2)ccc1Cn1cc(-c2ccc3cc[nH]c3c2)nn1` [Compound 4077, 2-(4-((4-(1H-indol-6-yl)-1H-1,2,3-triazol-1-yl)methyl)-3-fluorophenyl)-5-(difluoromethyl)-1,3,4-oxadiazole], the values for the IC50 on human recombinant HDAC1 (setting [1]) and on human recombinant HDAC6 (setting [2]) were greater than 50000 nM and 84.5 nM, respectively. In addition, the “HDAC6 selectivity (fold)” value at human recombinant HDAC6 (HDAC1 IC50 / HDAC6 IC50) amounted to 591 fold.
Regarding `FC(F)c1nnc(-c2ccc(Cn3cc(-c4ccnc5[nH]ccc45)nn3)cc2)o1` [Compound 4527, 2-(4-((4-(1H-pyrrolo[2,3-b]pyridin-4-yl)-1H-1,2,3-triazol-1-yl)methyl)phenyl)-5-(difluoromethyl)-1,3,4-oxadiazole], the IC50 on human recombinant HDAC1 (setting [3]) is greater than 50000 nM; on human recombinant HDAC6 (setting [4]) it was 11.6 nM. Besides, the “HDAC6 selectivity (fold)” value on human recombinant HDAC6 (HDAC6 over HDAC1) is on record as 4310 fold.
